Source: patent US20110224232A1 (Board of Regents, The University of Texas System, priority 2008, published 2011)
“And” between values parts separate entries of the source, which are not always exact repeats. Identical values can stand only once.

Columns and labels:
Aspergillus fumigatus [1] = experiment: Pulmonary fungal burden by colony forming units in infected mice; assay type: in vivo
Method: (§1) Mice were monitored for an additional 5 days following discontinuation of treatment. Animals that appeared moribund prior to the end of the study were euthanized by halothane and death was recorded as occurring the next day. 12 mice were randomly selected from each group and euthanized on Day +8 for fungal burden analysis while any remaining mice were euthanized on Day +12. 2 additional mice were randomly selected from each group and euthanized on Day +8 and Day +12 for histological analysis
Lungs were homogenized in sterile saline (total volume 2 mL) supplemented with gentamicin and chloramphenicol using a tissue homogenizer (Polytron Dispensing and Mixing Technology PT 2100, Kinematica, Cincinnati, Ohio). Serial dilutions were prepared in sterile saline and plated in duplicate onto potato dextrose agar. Following 24 hours of incubation at 37° C., colonies were enumerated and colony forming units (CFU) per gram of lung tissue for each animal were calculated.
(§2) Statistical analyses were conducted as follows. Survival was plotted by Kaplan-Meier analysis, and differences in median survival and percent survival between prophylaxis groups were analyzed by the log-rank test and chi-square test, respectively, using Prism version 4 software (GraphPad, San Diego, Calif.). Differences in fungal burden endpoints (CFU/g and CE) were assessed for significance by analysis of variance with Tukey's post-test for multiple comparisons. A p-value of ≦0.05 was considered statistically significant for all comparisons.

Aspergillus fumigatus [2] = experiment: Pulmonary fungal burden by real-time quantitative PCR (conidial equivalents) in infected mice; assay type: in vivo; details: Day + 8 per table footnote
Method: as §1
Pulmonary fungal burden was also quantified by real-time quantitative polymerase chain reaction (qPCR) using previously described methods. Briefly, DNA was extracted from […] of lung homogenate with the use of a commercially available kit (DNeasy Tissue Kit, Qiagen, Valencia, Calif.) according to the manufacturer's instructions. DNA samples were analyzed in duplicate with the use of the ABI PRISM 7300 sequence-detection system (Applied Biosystems, Foster City, Calif.) with primers and dual-labeled fluorescent hybridization probes specific for the A. fumigatus 1,3-β-glucan synthase (FKS) gene (GenBank accession number U79728). The threshold cycle (Ct) of each sample was interpolated from a six-point standard curve generated by spiking naive mouse lungs with known amounts of conidia (102 to 107). An internal standard was amplified in separate reactions to correct for differences in DNA recovery. The resulting data was expressed as conidial equivalents (CE).
as §2

[3] = system: Aspergillus fumigatus clinical isolate 293 (AF 293); experiment: Survival of A. fumigatus-infected immunosuppressed mice (Kaplan-Meier); assay type: in vivo; details: A. fumigatus-infected female ICR mice, VOR inhalation BID 30-40 mg/kg, AmB intraperitoneal QD 1 mg/kg
Text: Conidia were harvested from Aspergillus fumigatus clinical isolate 293 (AF 293) cultures grown on potato dextrose agar (Hardy Diagnostics, Santa Maria, Calif.) by washing and scraping agar surfaces with 0.1% Tween 80 in sterile physiological saline and filtering through sterile glass wool. Conidia were re-suspended to achieve a final inoculum of ˜1×10^9 conidia/mL, as confirmed by hemocytometer counts and serial plating.
Mice were rendered immunosuppressed by intraperitoneal cyclophosphamide (250 mg/kg) and subcutaneous cortisone acetate (250 mg/kg) two days prior to inoculation (Day −2). Both cyclophosphamide (200 mg/kg intraperitoneal) and cortisone acetate (250 mg/kg subcutaneously) were re-administered on Day +3 following inoculation. Mice also received prophylactic antibiotic therapy of ceftazidime 50 mg/kg administered sub-cutaneously on Day −2 through Day +7.
To simulate pulmonary pathogenesis, mice were placed inside an acrylic chamber, and A. fumigatus conidia were introduced by aerosolizing the conidial suspension with a small particle nebulizer (Hudson Micro Mist, Hudson RCI, Temecula, Calif.) driven by compressed air. A standard exposure time of 1 hour was used to allow for complete aerosolization of the conidial suspension. Starting inocula were assessed by colony forming unit (CFU) enumeration from mice one hour post-inoculation.
The inhaled control group received 20 minute nebulizations of 100 mg/mL CAPTISOL® solutions BID beginning on Day −2 and continuing through Day +7. The intraperitoneal AmB group received 1 mg/kg Amphotericin B deoxycholate (Apothecon, Princeton, N.J.) by intraperitoneal injection (IP) once daily (QD) on Day +1 and continuing through Day +7 (FIG. 2).
Statistical analyses were conducted as follows. Survival was plotted by Kaplan-Meier analysis, and differences in median survival and percent survival between prophylaxis groups were analyzed by the log-rank test and chi-square test, respectively, using Prism version 4 software (GraphPad, San Diego, Calif.). […] A p-value of ≦0.05 was considered statistically significant for all comparisons.

A. fumigatus = experiment: Lung histopathology, pulmonary lesion counts in A. fumigatus-infected mice; assay type: in vivo, Aspergillus fumigatus
Method: Histopathological changes in lung tissue were evaluated and compared for four mice in each of the inhaled voriconazole, inhaled control, and intraperitoneal AmB groups. The inhaled control was aerosolized CAPTISOL® at a concentration of 100 mg/mL over 20 minutes. On day 8 post inoculation, animals were euthanized using halothane and 10% volume/volume formaldehyde was instilled into the lungs via the trachea. Lungs were then harvested and placed into 10% volume/volume formaldehyde. Tissue was fixed in formaldehyde for an adequate period of time followed by processing and embedding into paraffin wax. Coronal sections of the entire lung were obtained at a thickness of 4-6 μm and mounted on slides. Sections were stained with hematoxylin and eosin and viewed by light microscopy with a Zeiss AxioVision Imager at 10× magnification. Two investigators were blinded and independently evaluated each lung section. The extent of lung damage caused by invasive hyphae was recorded and quantified by counting and normalizing the number of gross lesions.
Normalization of the histopathology results was achieved by using the number of lung pieces (sections) on the slide as a denominator. The total number of lesions on the slide were counted and then divided by the number of pieces of tissue on that slide. This was done because the number of pieces of tissue per slide (again, all from the same cut of lung from the same animal) ranged from 4 to 9. For example, the normalized number of lesions would be 0.4 if 2 lesions were observed on a slide with 5 lung pieces. Similarly, the normalized value would be 0.14 if 1 lesion was observed on a slide with 7 lung pieces.

[4] = underivatized; cited from earlier work
[5] = system: invasive pulmonary aspergillosis; details: high doses, 40 mg/kg per day; cited from earlier work
[6] = normalized lesions, listed as AmB

Compound: Amphotericin B deoxycholate
- A - Day 8 Fungal Burden Determined by CFU, Mean (Aspergillus fumigatus [1]; Day +8): 4.37 log10 CFU
- A - Day 8 Fungal Burden Determined by CFU, Median (Aspergillus fumigatus [1]; Day +8): 4.33 log10 CFU
- A - Day 8 Fungal Burden Determined by CFU, Range (Aspergillus fumigatus [1]; Day +8): (3.59-5.07) log10 CFU
- B - Fungal Burden Determined by CFU for All Mice, Mean (Aspergillus fumigatus [1]; all samples, day 8 and day 12): 4.22 log10 CFU
- B - Fungal Burden Determined by CFU for All Mice, Median (Aspergillus fumigatus [1]; all samples, day 8 and day 12): 4.33 log10 CFU
- B - Fungal Burden Determined by CFU for All Mice, Range (Aspergillus fumigatus [1]; all samples, day 8 and day 12): (3.24-5.07) log10 CFU
- C - Conidial Equivalents Determined by qPCR, Mean (Aspergillus fumigatus [2]): 4.89 log10 conidial equivalents
- C - Conidial Equivalents Determined by qPCR, Median (Aspergillus fumigatus [2]): 4.95 log10 conidial equivalents
- C - Conidial Equivalents Determined by qPCR, Range (Aspergillus fumigatus [2]): (4.49-5.38) log10 conidial equivalents
- D - Conidial Equivalents per Gram of Lung Tissue Determined by Qpcr, Mean (Aspergillus fumigatus [2]; normalized for wet lung weight): 5.50 log10 conidial equivalents per
- D - Conidial Equivalents per Gram of Lung Tissue Determined by Qpcr, Median (Aspergillus fumigatus [2]; normalized for wet lung weight): 5.57 log10 conidial equivalents per
- D - Conidial Equivalents per Gram of Lung Tissue Determined by Qpcr, Range (Aspergillus fumigatus [2]; normalized for wet lung weight): (5.09-5.88) log10 conidial equivalents per
- Percent Survival ([3]; to Day +12): 23.1%
- Median Survival [3]: 7 days
- lung histopathology findings (in words) (A. fumigatus; A. fumigatus-infected mice, aerosolized voriconazole, intraperitoneal amphotericin B): marked pulmonary disease, including necrosis and the presence of invasive hyphae, was observed
- pulmonary lesions normalized for the number of lung tissue pieces per slide, Mean (A. fumigatus; normalized lesions): 0.6
- pulmonary lesions normalized for the number of lung tissue pieces per slide, 25th Percentile (A. fumigatus; [6]): 0.13 and 0.1
- pulmonary lesions normalized for the number of lung tissue pieces per slide, 75th Percentile (A. fumigatus; [6]): 1.31 and 1.3
- pulmonary lesions normalized for the number of lung tissue pieces per slide, Maximum (A. fumigatus; [6]): 1.6
- pulmonary lesions normalized for the number of lung tissue pieces per slide, Median (A. fumigatus; [6]): 0.28 and 0.3
- pulmonary lesions normalized for the number of lung tissue pieces per slide, Minimum (A. fumigatus; [6]): 0.13 and 0.1
- pulmonary lesions in all available histological samples, 25th Percentile (A. fumigatus; number of lesions): 1.0
- pulmonary lesions in all available histological samples, 75th Percentile (A. fumigatus; number of lesions): 6.8
- pulmonary lesions in all available histological samples, Maximum (A. fumigatus; number of lesions): 8.0
- pulmonary lesions in all available histological samples, Mean (A. fumigatus; number of lesions): 3.3
- pulmonary lesions in all available histological samples, Median (A. fumigatus; number of lesions): 2.0
- pulmonary lesions in all available histological samples, Minimum (A. fumigatus; number of lesions): 1.0

Compound: OC[C@H]1O[C@@H]2O[C@H]3[C@H](O)[C@@H](O)[C@@H](O[C@H]4[C@H](O)[C@@H](O)[C@@H](O[C@H]5[C@H](O)[C@@H](O)[C@@H](O[C@H]6[C@H](O)[C@@H](O)[C@@H](O[C@H]7[C@H](O)[C@@H](O)[C@@H](O[C@H]1[C@H](O)[C@H]2O)O[C@@H]7CO)O[C@@H]6CO)O[C@@H]5CO)O[C@@H]4CO)O[C@@H]3CO [α-CD]
- water solubility at saturation [4]: about 14.5 % w/w

Compound: CC[C@@H]([C@H](C)O)n1ncn(-c2ccc(N3CCN(c4ccc(OC[C@@H]5CO[C@@](Cn6cncn6)(c6ccc(F)cc6F)C5)cc4)CC3)cc2)c1=O [posaconazole]
- fungal burden as measured by quantitative real-time PCR [5]: significant reductions in fungal burden
